Reference: patent US10758534B2 (Vertex Pharmaceuticals Incorporated, priority 2014, dated 2020)

Each compound was assayed against T1, F508del (Homo sapiens, UniProt P13569, DEL508-508) (assay: Protocol 1: membrane potential optical assay (FLIPR III, voltage sensing dye), identification of potentiator compounds). Conditions: Table 3, compounds of Table 1.
T1 construct: expressed in transfected cells
Assay type: cell-based
In short: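 NIH 3T3 fibroblasts stably expressing F508del were cultured at 27° C for 24 hrs for temperature correction, then treated with compounds or DMSO and loaded with a voltage-sensing redistribution dye. Forskolin added with a Cl⁻ gradient activated the channel; membrane-potential fluorescence on FLIPR III reported increased gating.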

T1 sequence (P13569 with tags, fused parts or gaps DEL508-508): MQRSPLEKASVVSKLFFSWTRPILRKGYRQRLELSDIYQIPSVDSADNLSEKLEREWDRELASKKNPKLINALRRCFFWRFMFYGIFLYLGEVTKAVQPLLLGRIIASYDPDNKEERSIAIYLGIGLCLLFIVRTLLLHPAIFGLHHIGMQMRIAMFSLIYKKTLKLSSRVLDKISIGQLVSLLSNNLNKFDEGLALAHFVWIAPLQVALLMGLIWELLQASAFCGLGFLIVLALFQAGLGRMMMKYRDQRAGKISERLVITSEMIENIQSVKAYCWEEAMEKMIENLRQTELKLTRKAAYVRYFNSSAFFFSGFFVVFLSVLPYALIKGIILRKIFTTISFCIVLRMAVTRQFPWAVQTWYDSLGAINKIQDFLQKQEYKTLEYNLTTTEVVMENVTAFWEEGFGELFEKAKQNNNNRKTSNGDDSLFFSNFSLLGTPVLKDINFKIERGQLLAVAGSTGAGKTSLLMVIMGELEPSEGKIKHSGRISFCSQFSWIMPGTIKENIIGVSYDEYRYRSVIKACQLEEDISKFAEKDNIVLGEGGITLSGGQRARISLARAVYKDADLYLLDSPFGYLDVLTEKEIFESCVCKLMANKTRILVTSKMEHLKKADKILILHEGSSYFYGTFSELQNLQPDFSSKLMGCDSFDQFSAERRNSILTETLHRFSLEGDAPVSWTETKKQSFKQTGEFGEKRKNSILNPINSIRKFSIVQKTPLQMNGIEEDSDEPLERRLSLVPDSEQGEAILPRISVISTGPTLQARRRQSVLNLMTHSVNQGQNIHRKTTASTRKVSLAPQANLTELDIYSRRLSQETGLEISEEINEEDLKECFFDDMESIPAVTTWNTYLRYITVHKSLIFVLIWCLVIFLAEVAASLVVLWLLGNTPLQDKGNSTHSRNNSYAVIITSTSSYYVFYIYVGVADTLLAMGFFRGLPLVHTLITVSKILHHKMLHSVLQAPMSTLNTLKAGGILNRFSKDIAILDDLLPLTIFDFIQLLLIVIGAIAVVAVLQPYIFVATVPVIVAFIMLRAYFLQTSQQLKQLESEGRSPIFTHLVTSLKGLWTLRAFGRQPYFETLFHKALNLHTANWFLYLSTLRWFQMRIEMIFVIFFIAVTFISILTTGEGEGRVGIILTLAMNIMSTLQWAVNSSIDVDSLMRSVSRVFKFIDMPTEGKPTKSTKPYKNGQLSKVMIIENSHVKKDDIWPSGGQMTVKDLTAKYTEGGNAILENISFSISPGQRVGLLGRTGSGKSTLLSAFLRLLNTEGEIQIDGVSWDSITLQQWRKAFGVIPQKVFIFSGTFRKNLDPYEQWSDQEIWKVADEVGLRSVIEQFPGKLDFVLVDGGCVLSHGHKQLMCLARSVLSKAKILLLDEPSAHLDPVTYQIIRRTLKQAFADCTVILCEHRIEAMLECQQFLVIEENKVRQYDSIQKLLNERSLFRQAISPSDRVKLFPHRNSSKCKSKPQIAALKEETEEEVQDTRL

| Structure (SMILES) | EC30 |
| --- | --- |
| C=Cc1cc(C(=O)NS(=O)(=O)c2cccc(N)n2)c(N2C[C@@H](C)CC2(C)C)nc1C(C)(C)C [Compound 1373, N-[(6-amino-2-pyridyl)sulfonyl]-6-tert-butyl-2-[(4S)-2,2,4-trimethylpyrrolidin-1-yl]-5-vinyl-pyridine-3-carboxamide] | +++ (“+++” means <3 uM) |
| CC(C)COc1cc(F)cc(-c2ccc(C(=O)NS(=O)(=O)c3cccc(N)n3)c(OC(C)C3CCCC3)n2)c1 (stereo not drawn) [Compound 1374, N-[(6-amino-2-pyridyl)sulfonyl]-2-(1-cyclopentylethoxy)-6-(3-fluoro-5-isobutoxy-phenyl)pyridine-3-carboxamide] | +++ (“+++” means <3 uM) |
| CC(C)Oc1ccc(-c2ccc(C(=O)NS(=O)(=O)c3ccc(O)c(N)n3)c(N3[C@H](C)CC[C@@H]3C)n2)cn1 [Compound 1375, N-[(6-amino-5-hydroxy-2-pyridyl)sulfonyl]-2-[(2S,5R)-2,5-dimethylpyrrolidin-1-yl]-6-(6-isopropoxy-3-pyridyl)pyridine-3-carboxamide] | ++ (“++” means between 3 uM and 10 uM) |
| Cc1cc(C)c(Oc2nc(C3CCCCCC3)ccc2C(=O)NS(=O)(=O)c2cccc(N)n2)c(C)c1 [Compound 1376, N-[(6-amino-2-pyridyl)sulfonyl]-6-cycloheptyl-2-(2,4,6-trimethylphenoxy)pyridine-3-carboxamide] | +++ (“+++” means <3 uM) |
| CCCC/C=C/c1cc(C(=O)NS(=O)(=O)c2cccc(N)n2)c(N2C[C@@H](C)CC2(C)C)nc1C(C)(C)C [Compound 1377, N-[(6-amino-2-pyridyl)sulfonyl]-6-tert-butyl-5-[(E)-hex-1-enyl]-2-[(4S)-2,2,4-trimethylpyrrolidin-1-yl]pyridine-3-carboxamide] | +++ (“+++” means <3 uM) |
| C[C@@H]1CN(c2nc(C3CC4CCC3C4)ccc2C(=O)NS(=O)(=O)c2cccc(N)n2)C(C)(C)C1 (stereo partly drawn) [Compound 1378, NV [(6-amino-2-pyridyl)sulfonyl]-6-norbornan-2-yl-2-[(4S)-2,2,4-trimethylpyrrolidin-1-yl]pyridine-3-carboxamide] | +++ (“+++” means <3 uM) |
| C[C@@H]1CN(c2nc(/C=C/C3CC3)ccc2C(=O)NS(=O)(=O)c2cccc(N)n2)C(C)(C)C1 [Compound 1379, N-[(6-amino-2-pyridyl)sulfonyl]-6-[(E)-2-cyclopropylvinyl]-2-[(4S)-2,2,4-trimethylpyrrolidin-1-yl]pyridine-3-carboxamide] | +++ (“+++” means <3 uM) |
| C[C@@H]1CN(c2nc(C(C)(C)C)c(C3=CCC(C(F)(F)F)CC3)cc2C(=O)NS(=O)(=O)c2cccc(N)n2)C(C)(C)C1 (stereo partly drawn) [Compound 1380, N-[(6-amino-2-pyridyl)sulfonyl]-6-tert-butyl-5-[4-(trifluoromethyl)cyclohexen-1-yl]-2-[(4S)-2,2,4-trimethylpyrrolidin-1-yl]pyridine-3-carboxamide] | +++ (“+++” means <3 uM) |
| CC(C)COc1cc(F)cc(-c2nc(N3C[C@H](C)CC3(C)C)ccc2C(=O)NS(=O)(=O)c2cccc(N)n2)c1 [Compound 1385, N-[(6-amino-2-pyridyl)sulfonyl]-2-(3-fluoro-5-isobutoxy-phenyl)-6-[(4R)-2,2,4-trimethylpyrrolidin-1-yl]pyridine-3-carboxamide] | +++ (“+++” means <3 uM) |
| CC(C)COc1cc(F)cc(-c2ccc(C(=O)NS(=O)(=O)c3cccc(N)n3)c(-n3nc(C(C)C)cc3C(C)C)n2)c1 [Compound 1387, N-[(6-amino-2-pyridyl)sulfonyl]-2-(3,5-diisopropylpyrazol-1-yl)-6-(3-fluoro-5-isobutoxy-phenyl)pyridine-3-carboxamide] | +++ (“+++” means <3 uM) |
| CC1CN(c2nc(C(C)(C)C)c(C3=CC4CCC(C3)N4C(=O)OC(C)(C)C)cc2C(=O)NS(=O)(=O)c2cccc(N)n2)C(C)(C)C1 (stereo not drawn) [Compound 1388, tert-butyl 3-[5-[(6-amino-2-pyridyl)sulfonylcarbamoyl]-2-tert-butyl-6-(2,2,4-trimethylpyrrolidin-1-yl)-3-pyridyl]-8-azabicyclo[3.2.1]oct-3-ene-8-carboxylate] | +++ (“+++” means <3 uM) |
| CC(=O)NC1CCN(S(=O)(=O)NC(=O)c2ccc(-c3cc(F)cc(OCC(C)C)c3)nc2N2CC(C)CC2(C)C)C1 (stereo not drawn) [Compound 1391, N-(3-acetamidopyrrolidin-1-yl)sulfonyl-6-(3-fluoro-5-isobutoxy-phenyl)-2-(2,2,4-trimethylpyrrolidin-1-yl)pyridine-3-carboxamide] | +++ (“+++” means <3 uM) |
| CC(C)COc1cc(F)cc(-c2ccc(C(=O)NS(=O)(=O)c3cccc(N)n3)c(OCC3CCCCC3)n2)c1 [Compound 1395, N-[(6-amino-2-pyridyl)sulfonyl]-2-(cyclohexylmethoxy)-6-(3-fluoro-5-isobutoxy-phenyl)pyridine-3-carboxamide] | +++ (“+++” means <3 uM) |
| CC(C)COc1cc(F)cc(-c2ccc(C(=O)NS(=O)(=O)c3ccccc3)c(N3C[C@H](C)CC3(C)C)n2)c1 [Compound 1396, N-(benzenesulfonyl)-6-(3-fluoro-5-isobutoxy-phenyl)-2-[(4R)-2,2,4-trimethylpyrrolidin-1-yl]pyridine-3-carboxamide] | +++ (“+++” means <3 uM) |

More lines, now with the values ahead:

| EC30 | Structure (SMILES) |
| --- | --- |
| ++ (“++” means between 3 uM and 10 uM) | CC1CN(c2nc(C(C)(C)C)c(C3=CCC(C(=O)O)CC3)cc2C(=O)NS(=O)(=O)c2cccc(N)n2)C(C)(C)C1 (stereo not drawn) [Compound 1381, 4-[5-[(6-amino-2-pyridyl)sulfonylcarbamoyl]-2-tert-butyl-6-(2,2,4-trimethylpyrrolidin-1-yl)-3-pyridyl]cyclohex-3-ene-1-carboxylic acid] |
| + (“+” means greater than 10 uM) | CC1CN(c2nc(C(C)(C)C)c(C3=CCN(C)CC3)cc2C(=O)NS(=O)(=O)c2cccc(N)n2)C(C)(C)C1 (stereo not drawn) [Compound 1382, N-[(6-amino-2-pyridyl)sulfonyl]-6-tert-butyl-5-(1-methyl-3,6-dihydro-2H-pyridin-4-yl)-2-(2,2,4-trimethylpyrrolidin-1-yl)pyridine-3-carboxamide] |
| +++ (“+++” means <3 uM) | CCN(CC)c1ccc(C)c(-c2ccc(C(=O)NS(=O)(=O)c3cccc(N)n3)c(N3CC(C)CC3(C)C)n2)n1 (stereo not drawn) [Compound 1383, N-[(6-amino-2-pyridyl)sulfonyl]-6-[6-(diethylamino)-3-methyl-2-pyridyl]-2-(2,2,4-trimethylpyrrolidin-1-yl)pyridine-3-carboxamide] |
| +++ (“+++” means <3 uM) | CC1CN(c2ncc(-c3ccccc3)cc2C(=O)NS(=O)(=O)c2cccc(N)n2)C(C)(C)C1 (stereo not drawn) [Compound 1384, N-[(6-amino-2-pyridyl)sulfonyl]-5-phenyl-2-(2,2,4-trimethylpyrrolidin-1-yl)pyridine-3-carboxamide] |
| ++ (“++” means between 3 uM and 10 uM) | C[C@@H]1CN(c2nc3c(cc2C(=O)NS(=O)(=O)c2cccc(N)n2)CCC3)C(C)(C)C1 [Compound 1386, N-[(6-amino-2-pyridyl)sulfonyl]-2-[(4S)-2,2,4-trimethylpyrrolidin-1-yl]-6,7-dihydro-5H-cyclopenta[b]pyridine-3-carboxamide] |
| +++ (“+++” means <3 uM) | Cc1cc(C)c(Oc2nc(C3=CCN(Cc4ccccc4)CC3)ccc2C(=O)NS(=O)(=O)c2cccc(N)n2)c(C)c1 [Compound 1389, N-[(6-amino-2-pyridyl)sulfonyl]-6-(1-benzyl-3,6-dihydro-2H-pyridin-4-yl)-2-(2,4,6-trimethylphenoxy)pyridine-3-carboxamide] |
| +++ (“+++” means <3 uM) | CC(C)=C(C)c1ccc(C(=O)NS(=O)(=O)c2cccc(N)n2)c(Oc2c(C)cc(C)cc2C)n1 [Compound 1390, N-[(6-amino-2-pyridyl)sulfonyl]-6-(1,2-dimethylprop-1-enyl)-2-(2,4,6-trimethylphenoxy)pyridine-3-carboxamide] |
| +++ (“+++” means <3 uM) | CCOc1cccc2c1CN(Cc1c(C)cccc1F)C2(C)C(=O)NS(=O)(=O)c1cccc(N)n1 (stereo not drawn) [Compound 1392, N-[(6-amino-2-pyridyl)sulfonyl]-4-ethoxy-2-[(2-fluoro-6-methyl-phenyl)methyl]-1-methyl-isoindoline-1-carboxamide] |
| +++ (“+++” means <3 uM) | CCOc1cccc2c1CN(Cc1c(C)cc(C)cc1C)C2(C)C(=O)NS(=O)(=O)c1ccc2cc[nH]c2c1 (stereo not drawn) [Compound 1393, 4-ethoxy-N-(1H-indol-6-ylsulfonyl)-1-methyl-2-[(2,4,6-trimethylphenyl)methyl]isoindoline-1-carboxamide] |
| +++ (“+++” means <3 uM) | CCOc1cccc2c1CN(Cc1c(C)cc(C)cc1C)C2(C)C(=O)NS(=O)(=O)c1ccc(F)c(N)c1 (stereo not drawn) [Compound 1394, N-(3-amino-4-fluoro-phenyl)sulfonyl-4-ethoxy-1-methyl-2-[(2,4,6-trimethylphenyl)methyl]isoindoline-1-carboxamide] |
| +++ (“+++” means <3 uM) | CCC(CC)Nc1ccc(-c2ccc(C(=O)NS(=O)(=O)c3cccc(N)n3)c(N3[C@H](C)CC[C@@H]3C)n2)cn1 [Compound 1397, N-[(6-amino-2-pyridyl)sulfonyl]-2-[(2R,5S)-2,5-dimethylpyrrolidin-1-yl]-6-[6-(1-ethylpropylamino)-3-pyridyl]pyridine-3-carboxamide] |
| ++ (“++” means between 3 uM and 10 uM) | CC(C)CNc1ccc(-c2ccc(C(=O)NS(=O)(=O)c3cccc(N)n3)c(N3[C@H](C)CC[C@@H]3C)n2)cn1 [Compound 1398, N-[(6-amino-2-pyridyl)sulfonyl]-2-[(2S,5R)-2,5-dimethylpyrrolidin-1-yl]-6-[6-(isobutylamino)-3-pyridyl]pyridine-3-carboxamide] |
| +++ (“+++” means <3 uM) | CC(C)[C@H](C)Nc1ccc(-c2ccc(C(=O)NS(=O)(=O)c3cccc(N)n3)c(N3[C@H](C)CC[C@@H]3C)n2)cn1 [Compound 1399, N-[(6-amino-2-pyridyl)sulfonyl]-6-[6-[[(1 S)-1,2-dimethylpropyl]amino]-3-pyridyl]-2-[(2S,5R)-2,5-dimethylpyrrolidin-1-yl]pyridine-3-carboxamide] |
